Experimental data from PubChem BioAssay (NCI).
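48-hour exposure; five concentrations; linearly interpolated endpoints. GI50 is the concentration that inhibits growth by half. TGI is the concentration that stops growth completely.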

How the values were obtained:
Assay in all cases: inhibition of tumour cell growth, NCI panel, 48 h
HCT-15 colon = tested on: HCT-15 colon
HOP-92 NSCLC = tested on: HOP-92 NSCLC
KM12 colon = tested on: KM12 colon
LOX IMVI melanoma = tested on: LOX IMVI melanoma
MOLT-4 leukemia = tested on: MOLT-4 leukemia
NCI-H226 lung = tested on: NCI-H226 lung
OVCAR-3 ovarian = tested on: OVCAR-3 ovarian
RXF 393 renal = tested on: RXF 393 renal
SNB-75 CNS = tested on: SNB-75 CNS
SR leukemia = tested on: SR leukemia

| SMILES | GI50 (HCT-15 colon) | TGI (HCT-15 colon) | GI50 (HOP-92 NSCLC) | TGI (HOP-92 NSCLC) | GI50 (KM12 colon) | TGI (KM12 colon) | GI50 (LOX IMVI melanoma) | TGI (LOX IMVI melanoma) | GI50 (MOLT-4 leukemia) | TGI (MOLT-4 leukemia) | GI50 (NCI-H226 lung) | TGI (NCI-H226 lung) | GI50 (OVCAR-3 ovarian) | TGI (OVCAR-3 ovarian) | GI50 (RXF 393 renal) | TGI (RXF 393 renal) | GI50 (SNB-75 CNS) | TGI (SNB-75 CNS) | GI50 (SR leukemia) | TGI (SR leukemia) |
| --- | --- | --- | --- | --- | --- | --- | --- | --- | --- | --- | --- | --- | --- | --- | --- | --- | --- | --- | --- | --- |
| O=S(=O)([O-])c1ccc2c(c1)-c1nc-2nc2[n-]c(nc3nc(nc4[n-]c(n1)c1ccc(S(=O)(=O)[O-])cc41)-c1cc(S(=O)(=O)[O-])ccc1-3)c1ccc(S(=O)(=O)[O-])cc21.[Cu+2].[Na+] | 0.977 µM | 36.4 µM | 38900 nM | > 100 µM | 8.36 µM | > 76.8 µM | 3.29 µM | > 100 µM | 2.19 µM | > 100 µM | > 100 µM | > 100 µM | > 28.3 µM | > 100 µM | 49.4 µM | > 100 µM | > 67.3 µM | > 100 µM | 11.2 µM | > 100 µM |
| O=C(c1ccccc1)c1cc(Cl)ccc1OCCCCN1CCN(CCCCOc2ccc(Cl)cc2C(=O)c2ccccc2)CC1 | 2.1 µM | 4.27 µM | 2530 nM | 13 µM | 2.09 µM | 4.55 µM | 1.73 µM | 3.21 µM | 3.3 µM | 7.5 µM | 13.2 µM | 32.2 µM | 2.36 µM | 5.78 µM | 2.53 µM | 5.08 µM | 6.98 µM | 24.9 µM | 1.83 µM | 4.89 µM |
| C[C@H]1c2cccc(O)c2C(O)=C2C(=O)[C@]3(O)C(O)=C(C(N)=O)C(=O)[C@@H](N(C)C)[C@@H]3[C@@H](O)[C@@H]21 | 3.46 µM | 16 µM | 2350 nM | 6.18 µM | 3.37 µM | 11.5 µM | 2.75 µM | 10 µM | 3.57 µM | 15 µM | 3.72 µM | 25.7 µM | 2.5 µM | 6.85 µM | 3.79 µM | 33.9 µM | 1.81 µM | 6.66 µM | 1.98 µM | 4.67 µM |
| CC(O)C(N=Cc1ccccc1[O-])C(=O)[O-].CC(O)C(N=Cc1ccccc1[O-])C(=O)[O-].[Co+2] (centres undefined) | > 100 µM | > 100 µM | 47700 nM | > 100 µM | > 100 µM | > 100 µM | > 100 µM | > 100 µM | 19 µM | > 100 µM | 28.6 µM | > 100 µM | > 100 µM | > 100 µM | > 100 µM | > 100 µM | > 100 µM | > 100 µM | 39.7 µM | > 100 µM |
| CC(=O)O.CC(=O)O.CC(=O)O.CC(=O)O.CC(=O)O.CC(=O)O.O.[Ti].[Ti] | > 100 µM | > 100 µM | > 100000 nM | > 100 µM | > 100 µM | > 100 µM | > 100 µM | > 100 µM | > 100 µM | > 100 µM | > 100 µM | > 100 µM | > 100 µM | > 100 µM | > 100 µM | > 100 µM | 56 µM | > 100 µM | > 100 µM | > 100 µM |
| Cc1ccc(Cl)cc1Nc1nc(C(F)(F)F)ccc1C(=O)N1CCN(c2ccc(F)cc2)CC1 | 13.2 µM | 29.3 µM | 12500 nM | 30.4 µM | 11.3 µM | 23.4 µM | 11.9 µM | 24.6 µM | 9.91 µM | 46.6 µM | 15.5 µM | 31.3 µM | 10.7 µM | 24 µM | 11.2 µM | 29.9 µM | – | 14.2 µM | 17.6 µM | 80.6 µM |
| O=S(=O)(Nc1cc(F)cc(Cl)c1)c1ccc(-c2cnc(C3CC3)o2)cc1 | 0.529 µM | 17 µM | 979 nM | 8.45 µM | 0.614 µM | 16.7 µM | 2.5 µM | 20.8 µM | 2.55 µM | > 100 µM | 3.46 µM | 17.9 µM | 0.489 µM | 12.2 µM | 1.07 µM | 6.93 µM | 0.344 µM | 3.33 µM | 0.462 µM | > 100 µM |
| Cn1c(=O)c2c(nc(Nc3cc(=O)[nH]c(=O)[nH]3)n2Cc2ccccc2)n(C)c1=O | > 100 µM | > 100 µM | 7510 nM | > 100 µM | > 100 µM | > 100 µM | > 100 µM | > 100 µM | > 100 µM | > 100 µM | > 100 µM | > 100 µM | > 100 µM | > 100 µM | > 100 µM | > 100 µM | 12.5 µM | > 100 µM | > 100 µM | > 100 µM |
| COc1cc(Nc2cn[nH]c2-c2ccc(Cl)cc2)cc(OC)c1OC | 4.35 µM | 50 µM | 2730 nM | 33.4 µM | 2.83 µM | 16.4 µM | 5.62 µM | 20.7 µM | 3.65 µM | > 80.2 µM | 11.7 µM | 30.4 µM | 3.44 µM | 14.4 µM | 10.4 µM | > 64.1 µM | 1.14 µM | 7.66 µM | 2.23 µM | 42.2 µM |
| C=C(CCCCC)CN1CCCC1[C@@](C)(O)CC(=O)OCC (some centres undefined) | – | > 100 µM | – | > 100 µM | – | > 100 µM | – | > 100 µM | – | > 100 µM | – | > 100 µM | – | > 100 µM | – | > 100 µM | – | > 100 µM | – | > 100 µM |
| CC/C(=C(/c1ccc(OCCN(C)C)cc1)c1ccc(OC(=O)CCCCC(=O)c2c(C)[nH]c(/C=C3\N=C(c4ccc[nH]4)C=C3OC)c2C)cc1)c1ccccc1 | 4.44 µM | 28.5 µM | 1120 nM | 6.28 µM | 3.75 µM | 14.3 µM | 2.05 µM | 5.14 µM | 1.73 µM | 24.8 µM | 14.2 µM | 34.3 µM | 11.7 µM | 27 µM | 3.86 µM | 17.7 µM | 8.17 µM | 23.2 µM | 3.05 µM | 21 µM |
| O=c1nc2occc2cn1C1CC(O)C(CO)O1 (centres undefined) | – | > 100 µM | – | > 100 µM | – | > 100 µM | – | > 100 µM | – | > 100 µM | – | > 100 µM | – | > 100 µM | – | > 100 µM | – | > 100 µM | – | > 100 µM |
